Assay results as given in paper PMC12470154, “In Vitro Evaluation of Antimicrobial Amyloidogenic Peptides for the Treatment of Early and Mature Bacterial Biofilms” (International Journal of Molecular Sciences, 2025).

Legend:
S. aureus (129B strain) [1] = experiment: Early biofilm formation, MTT assay; format: cell-based, Staphylococcus aureus; parameters: key: ↓: Decrease in the parameter (optical density) compared to the negative control; −: No decrease in the parameter; ↑: Reverse effect (increase in the optical density compared to the control); conditions: 24 h, 0.3% MTT 2 h 37 °C, OD 595 nm
Description: (§1) After 24 h of incubation, the medium was removed. To assess the total biofilm biomass, the wells were rinsed with sterile PBS solution and stained with 0.1% crystal violet. The dye bound to the surface was then removed using 95% ethanol. To assess the presence of metabolically active cells, 0.3% MTT (PanEco Ltd., Moscow, Russia) solution was added to each well, and the plates were incubated at 37 °C for 2 h. After incubation, the MTT solution was removed, 150 µL of DMSO (Chimmed, Moscow, Russia) and 25 µL of glycine buffer were added to each well, and the plates were left at room temperature for 15 min. The resulting solutions were transferred to a flat-bottom 96-well plate, and optical density was measured at 595 nm.

S. aureus (129B strain) [2] = experiment: Antibacterial activity in liquid medium (optical density); format: cell-based, Staphylococcus aureus; parameters: key to change of optical density vs negative control: ↓: Decrease in the parameter (optical density) compared to the negative control; −: No decrease in the parameter; ↑: Reverse effect (increase in the optical density compared to the control); conditions: 24 h, 37 °C; for change of optical density vs negative control: OD 595 nm
Description: To evaluate the antibacterial activity of peptides in liquid culture, a stationary-phase culture of the tested bacterial strain was diluted 100-fold in fresh medium containing peptides or gentamicin (positive control) at the specified concentrations. A total volume of 200 µL was added to each well of a 96-well round-bottom microtiter plate. After 24 h of incubation at 37 °C, the samples were transferred to a flat-bottom 96-well microtiter plate, and the optical density was measured at 595 nm. Separately, the optical density of medium containing peptides but no bacteria was measured. These values were used as baseline (zero) readings for subsequent data analysis.

S. aureus (129B strain) [3] = experiment: Early biofilm formation, crystal violet staining; format: cell-based, Staphylococcus aureus; parameters: key: ↓: Decrease in the parameter (optical density) compared to the negative control; −: No decrease in the parameter; ↑: Reverse effect (increase in the optical density compared to the control); conditions: peptide present from inoculation, 24 h, OD 595 nm
Description: as §1

[4] = tested on: P. aeruginosa (2943 strain); experiment: Early biofilm formation, MTT assay; format: cell-based, Pseudomonas aeruginosa; parameters: key: ↓: Decrease in the parameter (optical density) compared to the negative control; −: No decrease in the optical density; ↑: Reverse effect (increase in the optical density compared to the control); conditions: 24 h, 0.3% MTT 2 h 37 °C, OD 595 nm
Description: as §1

[5] = tested on: P. aeruginosa (2943 strain); experiment: Early biofilm formation, crystal violet staining; format: cell-based, Pseudomonas aeruginosa; conditions: 24 h; for change of optical density after crystal violet staining vs negative control: peptide present from inoculation, OD 595 nm
Description: as §1

MRSA (SA 180-F strain) [6] = experiment: Mature biofilms, crystal violet staining; format: cell-based, methicillin-resistant Staphylococcus aureus; parameters: key: ↓: Decrease in the parameter (optical density) compared to the negative control; −: No decrease in the optical density; ↑: Reverse effect (increase in the optical density compared to the control); conditions: mature biofilm: peptide added after 24 h, further 24 h; 0.01-10 mg/mL
Description: as §1
(§2) A stationary-phase culture of the tested strain was diluted 100-fold in fresh medium (200 µL per well) and added to the wells of a 96-well round-bottom plate. […] After another 24 h, the medium was removed and the wells were rinsed with sterile PBS to eliminate planktonic cells. The procedures for assessing total biofilm biomass and cell metabolic activity using crystal violet and MTT assays were performed in the same manner as described above for early-stage biofilm experiments.

[7] = tested on: P. aeruginosa (2943 strain); experiment: Mature biofilms, MTT assay; format: cell-based, Pseudomonas aeruginosa; parameters: key: ↓: Decrease in the parameter (optical density) compared to the negative control; −: No decrease in the optical density; ↑: Reverse effect (increase in the optical density compared to the control); conditions: mature biofilm: peptide added after 24 h, further 24 h, 0.01-10 mg/mL
Description: as §1, §2

E. coli (MG1655 strain) [8] = experiment: Early biofilm formation, crystal violet staining; format: cell-based, Escherichia coli; parameters: key: ↓: Decrease in the parameter (optical density) compared to the negative control; −: No decrease in the parameter; ↑: Reverse effect (increase in the optical density compared to the control); conditions: peptide present from inoculation, 24 h, OD 595 nm
Description: as §1

E. coli (MG1655 strain) [9] = experiment: Mature biofilms, crystal violet staining; format: cell-based, Escherichia coli; parameters: key: ↓: Decrease in the parameter (optical density) compared to the negative control; −: No decrease in the parameter; ↑: Reverse effect (increase in the optical density compared to the control); conditions: mature biofilm: peptide added after 24 h, further 24 h; 0.01-10 mg/mL
Description: as §1, §2

MRSA (SA 180-F strain) [10] = experiment: Mature biofilms, MTT assay; format: cell-based, methicillin-resistant Staphylococcus aureus; parameters: key: ↓: Decrease in the parameter (optical density) compared to the negative control; −: No decrease in the parameter; ↑: Reverse effect (increase in the optical density compared to the control); conditions: mature biofilm: peptide added after 24 h, further 24 h; 0.01-10 mg/mL
Description: as §1, §2

S. aureus (129B strain) [11] = experiment: Mature biofilms, crystal violet staining; format: cell-based, Staphylococcus aureus; parameters: key: ↓: Decrease in the parameter (optical density) compared to the negative control; −: No decrease in the parameter; ↑: Reverse effect (increase in the optical density compared to the control); conditions: mature biofilm: peptide added after 24 h, further 24 h; 0.01-10 mg/mL
Description: as §1, §2

MRSA (SA 180-F strain) [12] = experiment: Early biofilm formation, crystal violet staining; format: cell-based, methicillin-resistant Staphylococcus aureus; conditions: for concentration given with ↓ (crystal violet): 24 h; for biofilm biomass following treatment (crystal violet): Table 3; for effectiveness compared to meropenem: tested concentrations 0.01, 0.1, 1, 10 mg/mL, crystal violet
Description: as §1

E. coli (MG1655 strain) [13] = experiment: Mature biofilms, MTT assay; format: cell-based, Escherichia coli; parameters: key: ↓: Decrease in the parameter (optical density) compared to the negative control; −: No decrease in the optical density; ↑: Reverse effect (increase in the optical density compared to the control); conditions: mature biofilm: peptide added after 24 h, further 24 h; 0.01-10 mg/mL
Description: as §1, §2

Sequence	change of optical density after MTT assay vs negative control (S. aureus (129B strain) [1])	change of optical density vs negative control (S. aureus (129B strain) [2])	change of optical density after crystal violet staining vs negative control (S. aureus (129B strain) [3])	change of optical density after MTT assay vs negative control [4]	change of optical density after crystal violet staining vs negative control [5]	change of optical density after crystal violet staining vs negative control (MRSA (SA 180-F strain) [6])	change of optical density after crystal violet staining vs negative control (E. coli (MG1655 strain) [8])	change of optical density after crystal violet staining vs negative control (E. coli (MG1655 strain) [9])	concentration given with ↓ (decrease in optical density) (S. aureus (129B strain) [2]) [mg/mL]	change of optical density after MTT assay vs negative control (MRSA (SA 180-F strain) [10])	change of optical density after crystal violet staining vs negative control (S. aureus (129B strain) [11])	concentration given with ↓ (crystal violet) (MRSA (SA 180-F strain) [12]) [mg/mL]	biofilm biomass following treatment (crystal violet) (MRSA (SA 180-F strain) [12])	effectiveness compared to meropenem (MRSA (SA 180-F strain) [12]; Figure 1)	concentration given with ↓ (crystal violet) [5] [mg/mL]	change of optical density after MTT assay vs negative control (E. coli (MG1655 strain) [13])	effect on MRSA biofilm formation (crystal violet staining intensity) (MRSA (SA 180-F strain) [12]; 0.01 mg/mL, Figure 1)	further results
RKKRRQRRRGGGGVTDFGVFVEI [R23I^T, TAT cell-penetrating peptide linked via glycine linker to amyloidogenic fragment of S1 ribosomal protein of T. thermophilus]	↑	↑	↑	−	−	−	↑											change of optical density after MTT assay vs negative control [7]: −
RKKRRQRRRGGGGVVVHINGGKFGGGGSRQIKIWFQNRRMKWKK [R44K^S]	↑	↓ (10 mg/mL)	↑	−	↓ (10 mg/mL)		↑	↑	10	↓ (0.01 mg/mL)	↑	1	marked reduction in biofilm biomass	less effective compared to meropenem	10			change of optical density vs negative control (S. aureus (129B strain) [2]; listed as R44K^P): ↑; effect on MRSA biofilm formation (crystal violet staining intensity) (MRSA (SA 180-F strain) [12]; 1 and 10 mg/mL, Figure 1, two independent replicates): inhibitory effect; concentration given with ↓ (crystal violet) (MRSA (SA 180-F strain) [12]; listed as R44K^P): 10 mg/mL; change of optical density after MTT assay vs negative control ([7]; listed as R44K^P): −
VTDFGVFVEIGGGGSRQIKIWFQNRRMKWKK [V31K^T, amyloidogenic fragment of S1 of T. thermophilus linked via glycine-rich linker to antennapedia peptide]	↑	−	↑	−	−	−	↑	↑		↓ (0.01 mg/mL)	↑	10	marked reduction in biofilm biomass	less effective compared to meropenem	10	−	inhibitory effect	change of optical density vs negative control (S. aureus (129B strain) [2]; listed as V31K^S): ↑; effect on MRSA biofilm formation (crystal violet staining intensity) (MRSA (SA 180-F strain) [12]; 10 mg/mL, Figure 1): reversed; change of optical density after crystal violet staining vs negative control ([5]; listed as V31K^S): ↓ (10 mg/mL); change of optical density after MTT assay vs negative control ([7]; listed as V31K^S): −
RKKRRQRRRGGGGITDFGIFIGL [R23L^P]	↑	↓ (1 mg/mL)	↑		↓ (10 mg/mL)	−	↑	↑	1	↓ (0.01 mg/mL)	↑	10	marked reduction in biofilm biomass	less effective compared to meropenem	10	−	inhibitory effect	
ITDFGIFIGLGGGGSRQIKIWFQNRRMKWKK [I31K^P]	↑	↓ (0.1 mg/mL)	↑	−	−		↑		0.1	↓ (0.01 mg/mL)	↑					−		
